Assay results reported in the supplement of paper PMC10307832.

Tests used:
Experiment in all cases: relative viability (nuclei count vs DMSO), 5 days (fraction); higher = more cells survive
Carboplatin + Pictilisib = compound: C1CC(C1)(C(=O)O)C(=O)O.[NH2-].[NH2-].[Pt+2] [Carboplatin] + CS(=O)(=O)N1CCN(Cc2cc3nc(-c4cccc5[nH]ncc45)nc(N4CCOCC4)c3s2)CC1 [Pictilisib] (partner 1 µM)
Method in brief: (§1)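 Relative viability divides the nuclei count in treated wells by that in vehicle wells. Lung cancer cell lines were seeded in 1536-well plates, dosed by pin tool the next day, and fixed and stained after 5 days in one step with final 0.05% Triton X-100, 1% formaldehyde and 1 ug/ml Hoechst. Dosing was a single drug or a fixed anchor-drug dose plus five library-drug doses (not always all listed) in √10 steps, and values are medians of duplicate plates imaged at 4×.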

MLN4924 + Navitoclax = compound: NS(=O)(=O)OC[C@@H]1C[C@@H](n2ccc3c(N[C@H]4CCc5ccccc54)ncnc32)C[C@@H]1O [MLN4924] + CC1(C)CCC(c2ccc(Cl)cc2)=C(CN2CCN(c3ccc(C(=O)NS(=O)(=O)c4ccc(N[C@H](CCN5CCOCC5)CSc5ccccc5)c(S(=O)(=O)C(F)(F)F)c4)cc3)CC2)C1 [Navitoclax] (partner 0.5 µM)
Method in brief: as §1

MLN4924 + Linsitinib = compound: NS(=O)(=O)OC[C@@H]1C[C@@H](n2ccc3c(N[C@H]4CCc5ccccc54)ncnc32)C[C@@H]1O [MLN4924] + C[C@]1(O)C[C@@H](c2nc(-c3ccc4ccc(-c5ccccc5)nc4c3)c3c(N)nccn32)C1 [Linsitinib] (partner 1 µM)
Method in brief: as §1

GSK126 + Lapatinib = compound: CC[C@H](C)N1C=C(C2=C(C=C(C=C21)C3=CN=C(C=C3)N4CCNCC4)C(=O)NCC5=C(C=C(NC5=O)C)C)C [GSK126] + CS(=O)(=O)CCNCc1ccc(-c2ccc3ncnc(Nc4ccc(OCc5cccc(F)c5)c(Cl)c4)c3c2)o1 [Lapatinib] (partner 2 µM)
Method in brief: as §1

Row | Cell Line | relative viability (Carboplatin + Pictilisib; first compound 0.08 µM) | relative viability (Carboplatin + Pictilisib; first compound 0.253 µM) | relative viability (Carboplatin + Pictilisib; first compound 0.8 µM) | relative viability (Carboplatin + Pictilisib; first compound 2.53 µM) | relative viability (Carboplatin + Pictilisib; first compound 8 µM) | relative viability (MLN4924 + Navitoclax; first compound 0.04 µM) | relative viability (MLN4924 + Navitoclax; first compound 0.1265 µM) | relative viability (MLN4924 + Navitoclax; first compound 0.4 µM) | relative viability (MLN4924 + Navitoclax; first compound 1.265 µM) | relative viability (MLN4924 + Navitoclax; first compound 4 µM) | relative viability (MLN4924 + Linsitinib; first compound 0.04 µM) | relative viability (MLN4924 + Linsitinib; first compound 0.1265 µM) | relative viability (MLN4924 + Linsitinib; first compound 0.4 µM) | relative viability (MLN4924 + Linsitinib; first compound 1.265 µM) | relative viability (MLN4924 + Linsitinib; first compound 4 µM) | relative viability (GSK126 + Lapatinib; first compound 0.08 µM) | relative viability (GSK126 + Lapatinib; first compound 0.253 µM) | relative viability (GSK126 + Lapatinib; first compound 0.8 µM) | relative viability (GSK126 + Lapatinib; first compound 2.53 µM) | relative viability (GSK126 + Lapatinib; first compound 8 µM)
1 | Calu-6 | 0.914 | 0.906 | 0.823 | 0.739 | 0.486 | 0.667 | 0.232 | 0.162 | 0.119 | 0.128 | 0.946 | 0.708 | 0.317 | 0.101 | 0.109 | 1.1 | 1.14 | 1.07 | 1.11 | 1.03
2 | NCI-H2009 | 0.825 | 0.816 | 0.761 | 0.79 | 0.558 | 0.809 | 0.365 | 0.293 | 0.0903 | 0.0793 | 0.816 | 0.36 | 0.247 | 0.143 | 0.0806 | 1.23 | 0.893 | 0.985 | 0.942 | 1.06
3 | NCI-H322M | 0.567 | 0.465 | 0.507 | 0.542 | 0.521 | 1.3 | 1.22 | 0.844 | 0.338 | 0.382 | 0.86 | 0.908 | 0.913 | 0.262 | 0.328 | 0.616 | 0.638 | 0.604 | 0.654 | 0.66
4 | NCI-H23 | 0.477 | 0.483 | 0.481 | 0.472 | 0.391 | 0.759 | 0.69 | 0.281 | 0.218 | 0.148 | 0.632 | 0.405 | 0.203 | 0.135 | 0.149 | 1.26 | 1.02 | 1.02 | 1.22 | 1.2
5 | NCI-H1944 | 0.338 | 0.321 | 0.336 | 0.327 | 0.342 | 1.05 | 0.979 | 0.873 | 0.209 | 0.215 | 1.38 | 1.19 | 1.02 | 0.257 | 0.37 | 1.04 | 0.724 | 0.859 | 0.865 | 0.989
6 | NCI-H1755 | 0.432 | 0.442 | 0.407 | 0.417 | 0.391 | 0.921 | 0.677 | 0.392 | 0.178 | 0.154 | 1.07 | 0.701 | 0.447 | 0.159 | 0.2 | 1.1 | 1.07 | 1.04 | 1.01 | 1.1
7 | A-427 | 0.773 | 0.768 | 0.629 | 0.694 | 0.732 | 0.468 | 0.321 | 0.273 | 0.221 | 0.227 | 0.686 | 0.381 | 0.315 | 0.222 | 0.217 | 1.14 | 1.1 | 1.05 | 1.07 | 0.962
8 | SW 1573 | 0.408 | 0.603 | 0.492 | 0.555 | 0.399 | 0.887 | 1.12 | 0.439 | 0.0613 | 0.0532 | 0.928 | 0.766 | 0.389 | 0.0982 | 0.0789 | 1.09 | 1.07 | 0.989 | 1.27 | 1.28
9 | PC-14 | 0.815 | 0.744 | 0.62 | 0.698 | 0.349 | 0.997 | 0.788 | 0.593 | 0.13 | 0.0891 | 0.975 | 0.79 | 0.366 | 0.143 | 0.144 | 0.359 | 0.309 | 0.292 | 0.307 | 0.326
10 | LOU-NH91 | 0.551 | 0.57 | 0.5 | 0.525 | 0.576 | 0.649 | 0.761 | 0.556 | 0.41 | 0.314 | 1.01 | 1.14 | 0.961 | 0.561 | 0.472 | 0.812 | 0.77 | 0.755 | 0.882 | 0.871
11 | BEN | 0.69 | 0.587 | 0.515 | 0.525 | 0.609 | 0.0403 | 0.0516 | 0.045 | 0.0476 | 0.0518 | 0.765 | 0.464 | 0.319 | 0.17 | 0.188 | 0.818 | 0.826 | 0.756 | 0.799 | 0.811
12 | NCI-H2085 | 0.525 | 0.502 | 0.477 | 0.458 | 0.399 | 1.25 | 1.1 | 1.12 | 0.733 | 0.366 | 0.868 | 0.839 | 0.577 | 0.313 | 0.235 | 0.922 | 0.847 | 0.78 | 0.803 | 0.78
13 | NCI-H1792 | 0.327 | 0.261 | 0.236 | 0.22 | 0.246 | 0.594 | 0.46 | 0.567 | 0.338 | 0.109 | 0.548 | 0.664 | 0.804 | 0.184 | 0.124 | 0.973 | 0.894 | 0.868 | 0.982 | 0.943
14 | H3255 | 0.54 | 0.504 | 0.375 | 0.407 | 0.425 | 0.592 | 0.434 | 0.226 | 0.131 | 0.175 | 0.927 | 0.593 | 0.354 | 0.201 | 0.257 | 0.24 | 0.243 | 0.302 | 0.272 | 0.269
15 | EMC-BAC-2 | 0.48 | 0.538 | 0.476 | 0.56 | 0.466 | 1.02 | 0.486 | 0.271 | 0.16 | 0.159 | 0.805 | 0.547 | 0.237 | 0.179 | 0.163 | 0.913 | 0.899 | 0.89 | 0.88 | 0.944
